Data: the supplement of paper PMC7695840
Counter-ions that a name gives are not always drawn.

Assays:
[1] = system: Staphylococcus aureus MW2 delta-mecA (mecA-); test: IC50 (growth, competition assay); conditions: cefoxitin: subinhibitory
Procedure, shortened: (§1)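 Pre-induced, 1:1-mixed fluorescent S. aureus MW2 mecA+ and ΔmecA strains were grown 20 h at 37 °C, 90% humidity, unshaken, in LB with a daily-set subinhibitory cefoxitin dose, in 1536-well plates. Compounds were given on five- or nine-point 2-fold gradients, in two dye-swapped replicates. DsRed (540/590) and GFP (485/520) were scaled per plate between single-strain control medians, with No Treatment then set to 0.5. Per-strain IC50 was the dose halving the No Treatment signal, or the maximal signal.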

[2] = system: Staphylococcus aureus MW2 (mecA+); test: IC50 (growth, competition assay); conditions: cefoxitin: subinhibitory
Procedure, shortened: as §1

SMILES	IC50 ([1]; fluorescent label: DsRed)	IC50 ([1]; fluorescent label: GFP)	IC50 ([2]; fluorescent label: DsRed)	IC50 ([2]; fluorescent label: GFP)
CC1(C)C=Cc2c(c3c(c4c(=O)c(-c5ccc(O)c(O)c5)coc24)OC(C)(C)CC3)O1 [ISOPOMIFERIN]	11.8 µM	< 9.85 µM	27 µM	26.6 µM
O=C1NC(c2cccc([N+](=O)[O-])c2)=CCN1c1ccccc1O [Icilin]	19.3 µM	25.5 µM	63.3 µM	54.4 µM
CCc1cc2c(cc1CC)CC(NC[C@H](O)c1ccc(O)c3[nH]c(=O)ccc13)C2 [Indacaterol Maleate]	53.8 µM	32.2 µM	71.1 µM	91.4 µM
CN[C@@H]1C[C@@H](c2ccc(Cl)c(Cl)c2)c2ccccc21 [Indatraline hydrochloride]	36.2 µM	52.3 µM	70.1 µM	98.4 µM
O=C(/C=C/c1ccc(O)cc1)c1ccc(O)cc1O [Isoliquiritigenin]	27.5 µM	17 µM	130 µM	> 150 µM
CC(C)(C)c1cc(C(C)(C)C)c(NC(=O)c2c[nH]c3ccccc3c2=O)cc1O [Ivacaftor (VX-770)]	1.27 µM	1.6 µM	9.86 µM	14.8 µM
Oc1ccc(/C=C/c2ccc(/C=C/c3ccc(O)cc3)c(Br)c2)cc1 [K114]	< 9.85 µM	< 9.85 µM	< 9.85 µM	< 9.85 µM
CC(=O)OCC1=C(C(=O)O)N2C(=O)[C@@H](NC(=O)Cc3cccs3)[C@H]2SC1 [KEFLIN]	< 9.85 µM	< 9.85 µM	< 9.85 µM	< 9.85 µM
CC[C@H]1OC(=O)[C@H](C)C(=O)[C@H](C)[C@@H](O[C@@H]2O[C@H](C)C[C@H](N(C)C)[C@H]2O)[C@](C)(OC)C[C@@H](C)C(=O)[C@H](C)[C@H]2N(CCCCn3cnc(-c4cccnc4)c3)C(=O)O[C@]12C [KETEK]	< 9.85 µM	< 9.85 µM	< 9.85 µM	< 9.85 µM
CC(=O)N1CCN(c2ccc(OCC3COC(Cn4ccnc4)(c4ccc(Cl)cc4Cl)O3)cc2)CC1 (stereo unspecified) [KETOZOLE]	50.6 µM	32.2 µM	112 µM	132 µM
CC[C@@H](C(=O)[C@@H](C)[C@@H](O)[C@H](C)[C@@H]1O[C@@H]([C@@H](CC)C(=O)O)CC[C@@H]1C)[C@H]1O[C@]2(C=C[C@@H](O)[C@]3(CC[C@@](C)([C@H]4CC[C@](O)(CC)[C@H](C)O4)O3)O2)[C@H](C)C[C@@H]1C [KOKCISAN]	< 9.85 µM	32.4 µM	31.9 µM	< 9.85 µM
N[C@@H](Cc1cc(I)c(Oc2cc(I)c(O)c(I)c2)c(I)c1)C(=O)O [L-Thyroxine]	< 9.85 µM	< 9.85 µM	< 9.85 µM	< 9.85 µM
OC(c1cc(C(F)(F)F)nc2c(C(F)(F)F)cccc12)C1CCCCN1 (stereo unspecified) [LARIAM]	< 9.85 µM	< 9.85 µM	< 9.85 µM	< 9.85 µM
COC(=O)c1c(C)c2c(c(C)c1O)OC(=O)c1c(C)c(Cl)c(O)c(Cl)c1O2 [LEOIDIN]	< 9.85 µM	< 9.85 µM	< 9.85 µM	< 9.85 µM
C[C@H]1COc2c(N3CCN(C)CC3)c(F)cc3c(=O)c(C(=O)O)cn1c23 [LEVAQUIN]	< 9.85 µM	< 9.85 µM	< 9.85 µM	< 9.85 µM
CCC[C@@H]1C[C@@H](C(=O)N[C@@H]([C@H]2O[C@H](SC)[C@H](O)[C@@H](O)[C@H]2O)[C@@H](C)O)N(C)C1 [LINCOCIN]	< 9.85 µM	< 9.85 µM	< 9.85 µM	< 9.85 µM
N=C(NCCCCCCNC(=N)NC(=N)Nc1ccc(Cl)cc1)NC(=N)Nc1ccc(Cl)cc1 [LISIUM]	< 9.85 µM	< 9.85 µM	< 9.85 µM	< 9.85 µM
Oc1c(Cl)cc(Cl)cc1Sc1cc(Cl)cc(Cl)c1O [LOROTHIDOL]	< 9.85 µM	< 9.85 µM	< 9.85 µM	< 9.85 µM
O=C(CCCCCN1CCN(c2ccccc2-c2ccccc2)CC1)NC1CCCc2ccccc21 (stereo unspecified) [LP 12 hydrochloride hydrate]	< 9.85 µM	< 9.85 µM	17.2 µM	23.3 µM
CNCCCC12CCC(c3ccccc31)c1ccccc12 [LUDIOLMIL]	31.2 µM	48.5 µM	> 150 µM	134 µM
CCOC(=O)[C@@H](N)Cc1ccc(-c2cc(O[C@H](c3ccc(Cl)cc3-n3ccc(C)n3)C(F)(F)F)nc(N)n2)cc1 [LX1606 hippurate]	< 9.85 µM	< 9.85 µM	21.7 µM	19.2 µM
O=S1(=O)N(CCN2CC=C(c3c[nH]c4cc(F)ccc34)CC2)c2cccc3c2N1CCC3 [LY-367,265]	< 9.85 µM	13.1 µM	39 µM	45 µM
C[C@H]1COc2c(N3CCN(C)CC3)c(F)cc3c(=O)c(C(=O)O)cn1c23 [Levofloxacin (Levaquin)]	< 0.498 µM	< 0.498 µM	< 0.498 µM	< 0.498 µM
CC(=O)NC[C@H]1CN(c2ccc(N3CCOCC3)c(F)c2)C(=O)O1 [Linezolid (Zyvox)]	0.992 µM	< 0.498 µM	2.31 µM	2.83 µM
